In PubChem BioAssay (NCI):
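Each compound was tested at five concentrations against cells in 96-well plates for 48 hours. Abbreviation: GI50, concentration required for 50% inhibition of growth. TGI denotes the concentration required for complete inhibition of growth.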

Tests used:
Assay in all cases: NCI anticancer screen, dose series, 48 h
[1] = tested on: M14 melanoma
[2] = tested on: SK-MEL-2 melanoma
[3] = tested on: U251 CNS
[4] = tested on: A498 renal
[5] = tested on: CCRF-CEM leukemia
[6] = tested on: IGROV1 ovarian
[7] = tested on: HCT-15 colon
[8] = tested on: MOLT-4 leukemia
[9] = tested on: ACHN renal
[10] = tested on: MDA-MB-435

Row | SMILES | TGI [1] [µM] | TGI [2] [µM] | TGI [3] [µM] | TGI [4] [µM] | TGI [5] [µM] | TGI [6] [µM] | TGI [7] [µM] | TGI [8] [µM] | TGI [9] [µM] | TGI [10] [µM] | GI50 [1] [µM] | GI50 [2] [µM] | GI50 [3] [µM] | GI50 [4] [µM] | GI50 [5] [µM] | GI50 [6] [µM] | GI50 [7] [µM] | GI50 [8] [µM] | GI50 [9] [µM]
1 | CSC1=NS(=O)(=O)c2cc(C(=O)NN(C)C(=O)c3cc4c(cc3Cl)SC(SC)=NS4(=O)=O)c(Cl)cc2S1 | > 10 | > 10 | > 10 | > 10 | > 10 | > 10 | > 10 | > 10 | > 10 | – | – | – | – | – | – | – | – | – | –
2 | COc1ccc2nc3cc(Cl)ccc3c(NCCNCCCNC(=O)c3cc(-c4ccccc4)nc4ccccc34)c2c1 | > 100 | – | > 100 | > 100 | > 100 | > 100 | > 100 | > 100 | > 100 | > 100 | – | – | – | – | – | – | – | – | –
3 | O=C1C(Br)=C(c2ccccc2)S(=O)c2ccccc21 (stereo not given) | 27 | 33.8 | 22.8 | – | – | 23.1 | 14.1 | – | 6.53 | 19.5 | – | – | – | – | – | – | – | – | –
4 | COc1c(C)c(OC)c2c(c1O)[C@@H]1[C@@H]3Cc4c(OC)c(C)c(OC)c(O)c4[C@H](CNC(=O)c4cnc5ccccc5n4)N3[C@@H](C#N)[C@H](C2)N1C | 0.00568 | 0.00733 | > 0.0361 | 0.00894 | 0.0054 | – | > 0.0716 | 0.00262 | > 0.0414 | 0.00622 | – | – | – | – | – | – | – | – | –
5 | OC12CC/C(=N/OCc3ccccc3)CC1c1ccccc12 (stereo not given) | > 100 | > 100 | > 100 | – | > 100 | > 100 | > 100 | > 100 | > 100 | – | – | – | – | – | – | – | – | – | –
6 | CC(=O)OC1[C@H]2c3cc4c(cc3CN3CCC(=C[C@@H]1O)C23)OCO4 (stereo not given in full) | > 100 | – | > 100 | – | > 100 | > 100 | > 100 | > 100 | > 100 | – | – | – | – | – | – | – | – | – | –
7 | CC(=O)O[C@H]1C(=O)[C@@]2(C)[C@H]([C@H](OC(=O)c3ccccc3)[C@]3(O)C[C@H](OC(=O)[C@H](O)[C@@H](NC(=O)CC(C)(C)C)c4ccccc4)C(C)=C1C3(C)C)C1(OC(C)=O)CO[C@@H]1C[C@@H]2O (stereo not given in full) | > 10 | > 10 | – | > 10 | > 10 | > 10 | > 5.78 | > 3.96 | > 10 | – | – | – | – | – | – | – | – | – | –
8 | COc1ccc(C(=O)N2c3ccccc3Sc3ccccc32)c(C(F)(F)F)c1 | > 100 | > 100 | > 100 | 0.877 | > 100 | > 100 | > 100 | > 100 | > 100 | – | 0.343 | 0.677 | 0.5 | 0.282 | 0.0879 | 2.2 | 0.405 | 0.406 | 1.33
9 | Cn1nc(S(N)(=O)=O)s/c1=N/C(N)=S | > 100 | > 100 | > 100 | > 100 | > 100 | – | > 100 | > 100 | > 100 | > 100 | – | – | – | – | – | – | – | – | –
10 | CC(=O)N1CCN(C23OC4(N5CCN(C(C)=O)CC5)C5C6CC(C7C6C4C72)C53)CC1 (stereo not given) | > 100 | > 100 | > 100 | – | > 100 | > 100 | > 100 | > 100 | > 100 | > 100 | – | – | – | – | – | – | – | – | –
11 | COc1ccc(/C=C2\N=C(c3ccccc3)N(C3Nc4cc5c(cc4S3)NC(N3C(=O)/C(=C/c4ccc(OC)cc4)N=C3c3ccccc3)S5)C2=O)cc1 (stereo not given) | > 100 | 97.5 | 63.7 | > 100 | – | > 100 | > 100 | > 100 | > 100 | > 100 | – | – | – | – | – | – | – | – | –
12 | COc1cc(S(=O)(=O)Nc2ccc(-c3csc(N4C(=O)CSC4c4ccccc4)n3)cc2)ccc1Cl (stereo not given) | > 100 | > 100 | – | 3.61 | > 100 | > 100 | > 100 | > 100 | > 100 | > 100 | – | – | – | – | – | – | – | – | –
13 | c1ccc2c(Cc3nnc4sc(SSc5nn6c(Cc7c[nH]c8ccccc78)nnc6s5)nn34)c[nH]c2c1 | 37.2 | – | 58.6 | 44.2 | > 100 | 27.6 | 53.6 | 70.6 | > 100 | 47.7 | – | – | – | – | – | – | – | – | –
14 | CN(C)CCCOCCn1c2c(c3ccccc31)CCCC2 | 32.1 | 26.5 | 41.8 | – | 30 | 34 | 30.5 | 30.6 | 29 | 34.2 | – | – | – | – | – | – | – | – | –
15 | N#CC(NNC(=O)c1ccccc1O)c1cccc(O)c1 (stereo not given) | > 100 | > 100 | > 100 | – | > 100 | > 100 | > 100 | > 100 | > 100 | – | – | – | – | – | – | – | – | – | –
16 | Cc1sc2ccccc2[n+]1CCC(=O)O | > 100 | > 100 | > 100 | > 100 | – | > 100 | > 100 | – | > 100 | > 100 | – | – | – | – | – | – | – | – | –
17 | Cc1ccc(S(=O)(=O)c2c(O)c3ccccc3n(C)c2=O)cc1 | > 100 | > 100 | > 100 | > 100 | > 100 | > 100 | > 100 | – | – | > 100 | – | – | – | – | – | – | – | – | –
18 | CCOc1cc(C2CC(c3ccc(NS(=O)(=O)c4cc([N+](=O)[O-])ccc4C)cc3)=NN2)ccc1O (stereo not given) | 43.8 | 49.9 | – | 70.7 | > 100 | > 100 | 67.3 | 48.8 | 76.7 | 85.9 | – | – | – | – | – | – | – | – | –
19 | CC(C)OP(=O)(OC(C)C)C(C(C)C)N(C)/C(F)=N/C(F)(F)F (stereo not given) | > 100 | – | > 100 | > 100 | > 100 | > 100 | > 100 | > 100 | > 100 | > 100 | – | – | – | – | – | – | – | – | –
20 | O=S1(=O)c2ccccc2NC(=S)CC1c1ccccc1 (stereo not given) | > 100 | – | > 100 | – | > 100 | > 100 | > 100 | > 100 | > 100 | > 100 | – | – | – | – | – | – | – | – | –
21 | CC(=O)Oc1ccc(C2COc3cc(OC(C)=O)c(OC(C)=O)cc3C2)cc1 (stereo not given) | – | 41.5 | 60.4 | 13.8 | 58.1 | 31.2 | 40.8 | 62 | – | – | – | – | – | – | – | – | – | – | –
22 | COC(=O)C1(Cc2ccccc2)Cc2ccccc2C1 | 34.8 | 25.8 | 73.5 | – | 42.4 | > 100 | > 100 | 41.8 | > 100 | 41.8 | – | – | – | – | – | – | – | – | –
